According to US20240251785A1, “SMALL MOLECULE ANTAGONISTS AND AGONISTS OF ARTHROPOD KININ RECEPTORS FOR PEST CONTROL” (The Texas A&M University System, priority 2021, published 2024):
Read-outs that look alike come from different tables or passages of the source.

What was measured:
[1] = tested on: R. microplus kinin receptor; assay: High-throughput dual-addition calcium fluorescence screen on BMLK3 cells; assay type: cell-based, Rhipicephalus microplus; conditions: for agonist NPA (%): compound 2 μmol L^−1, first addition, relative to FFFSWGa 500 nmol L^−1; for antagonist Io (%): compound 2 μmol L^−1, 5 min, then FFFSWGa 500 nmol L^−1
[2] = target: recombinant tick kinin receptor (BMLK3) (Rhipicephalus microplus, UniProt Q9NHA4); assay: Dose-response dual-addition calcium fluorescence assay on BMLK3 cells; assay type: cell-based; conditions: for validation mark in dose-response assay: Table 3; for EC50: read-out: BMLK3 EC50
recombinant tick kinin receptor (BMLK3), sequence (Q9NHA4 entry or part of it): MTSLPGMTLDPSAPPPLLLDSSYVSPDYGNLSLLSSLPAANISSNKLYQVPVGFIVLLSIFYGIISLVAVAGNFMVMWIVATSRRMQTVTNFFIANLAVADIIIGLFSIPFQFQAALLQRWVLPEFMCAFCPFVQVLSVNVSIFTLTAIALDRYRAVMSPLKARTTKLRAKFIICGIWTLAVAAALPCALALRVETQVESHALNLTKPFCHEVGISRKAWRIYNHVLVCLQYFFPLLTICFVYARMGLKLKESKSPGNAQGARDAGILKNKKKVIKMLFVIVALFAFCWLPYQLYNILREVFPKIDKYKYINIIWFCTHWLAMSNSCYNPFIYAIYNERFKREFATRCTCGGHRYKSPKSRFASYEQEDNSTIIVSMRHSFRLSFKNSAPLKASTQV

[3] = tested on: vector-only (V/O) CHO-K1 cells; assay: Dose-response dual-addition calcium fluorescence assay on vector-only cells; assay type: cell-based; conditions: for IC50: read-out: V/O antagonist IC50
[4] = first addition, 20 concentrations 28 nM-25 μM
[5] = second addition Rhimi-K-1 1 μmol L^−1, read-out: BMLK3 IC50
[6] = V/O cells, second addition Rhimi-K-1 1 μmol L^−1
[7] = virtual hit molecules, dual-addition assay, recombinant tick kinin receptor (BMLK3) cells
[8] = virtual hit molecules, dual-addition assay, recombinant tick kinin receptor (BMLK3) cells, read-out: BMLK3 antagonist IC50
[9] = virtual hit molecules, dual-addition assay, vector-only cell (V/O)

EC50 [2, 4] | IC50 [2, 5] | EC50 [2, 7] | IC50 [2, 8] | Structure (SMILES) | agonist NPA (%) [1] | validation mark in dose-response assay [2] | EC50 ([3]; V/O cells, first addition) | IC50 [3, 6] | EC50 [3, 9] | IC50 [3, 9] | antagonist Io (%) [1]
 |  | > 25 µM | < 0.0285 µM | N#CC(=C(O)c1ccc(-c2ccc(Cl)cc2Cl)o1)c1nc2ccccc2c(=O)[nH]1 [SACC-0112961] |  |  |  |  | 0.243 µM | > 25 µM | 
 |  | 17.3 µM | < 0.0285 µM | Clc1ccc(-c2csc3ncnc(N4CCN(c5ccccn5)CC4)c23)cc1 [SACC-0064924] |  |  |  |  | 11.9 µM | > 25 µM | 
0.974 µM | 1.88 µM |  |  | COc1ccccc1NC(=O)c1cc2ccccc2cc1OCc1nnnn1C1CC1 [SACC-0095102] | 145% | *** (molecules which are either off-target or of low activity (<25 μM)) | < 0.0285 µM | 2.21 µM |  |  | 
 |  | 0.0417 µM | > 25 µM | c1ccc(-c2csc3ncnc(Nc4ccc5c(c4)OCCO5)c23)cc1 [SACC-0011565] |  |  |  |  | > 25 µM | 1.22 µM | 
2.95 µM | 7.17 µM |  |  | Cc1ccc(-c2ccsc2C(=O)Nc2ccc3c(c2)CCO3)cc1 [SACC-0033336] | 51% | *** (molecules which are either off-target or of low activity (<25 μM)) | 4.34 µM | > 25 µM |  |  | 
> 25 µM | > 25 µM |  |  | COc1ccc(-c2nc(CN3CCN(C(=O)c4ccc5c(c4)NC(=O)[C@H](C)S5)CC3)cs2)cc1 [SACC-0088454] |  | *** (molecules which are either off-target or of low activity (<25 μM)) | > 25 µM | 14.4 µM |  |  | 57%
 |  | < 0.0285 µM | 8.06 µM | Cc1nc(-c2ccc(CNc3ncnc4sccc34)o2)cs1 [SACC-0039825] |  |  |  |  | > 25 µM | 0.334 µM | 
 |  | > 25 µM | 6.54 µM | c1ccc(-c2csc3ncnc(N4CCCC4c4cccnc4)c23)cc1 (stereo not shown) [SACC-0011206] |  |  |  |  | 17.5 µM | 0.985 µM | 
 |  | > 25 µM | 8.47 µM | COc1cc2c(cc1OC)CN(c1ncnc3scc(-c4ccc(Cl)cc4)c13)CC2 [SACC-0095849] |  |  |  |  | 0.393 µM | 0.914 µM | 
 |  | 0.124 µM | 13.2 µM | O=C(c1ccco1)N1CCN(c2cccc3scc(-c4cccs4)c23)CC1 [SACC-0117388] |  |  |  |  | 1.78 µM | 8.39 µM | 
 |  | > 25 µM | 8.31 µM | CCC(CO)Nc1nc(CN2CCCCC2)nc2scc(-c3ccccc3)c12 (stereo not shown) [SACC-0046099] |  |  |  |  | 3.58 µM | 2.45 µM | 

Continued, compound first:

Structure (SMILES) | EC50 [2, 4] | IC50 [2, 5] | EC50 [2, 7] | IC50 [2, 8] | agonist NPA (%) [1] | validation mark in dose-response assay [2] | EC50 ([3]; V/O cells, first addition) | IC50 [3, 6] | EC50 [3, 9] | IC50 [3, 9] | antagonist Io (%) [1]
CC(C)(C)c1ccc(C(=O)NNC(=S)NC(=O)c2cccnc2)cc1 [SACC-0015467] | 4.32 µM | 6.3 µM |  |  | 70% | *** (molecules which are either off-target or of low activity (<25 μM)) | 3.45 µM | 7.1 µM |  |  | 
CCOC(=O)c1[nH]c2ccc(Br)cc2c1N=C(C)N(C)C [SACC-0055903] | 6.76 µM | 6.02 µM |  |  | 75% | *** (molecules which are either off-target or of low activity (<25 μM)) | 3.68 µM | 2.63 µM |  |  | 
C=CCNC(=S)NNC1=CC[C@@H](c2ccccc2)CC1 [SACC-0010978] |  |  | > 25 µM | 9.82 µM |  |  |  |  | 0.0677 µM | 12.2 µM | 
Cc1cc(N=CN(C)C)c2ccccc2n1 [SACC-0068485] | 0.743 µM | 4.15 µM |  |  |  | *** (molecules which are either off-target or of low activity (<25 μM)) | 3.77 µM | 0.549 µM |  |  | 56%
Cc1cc(C(C)(C)C)cc(C)c1CSC(=N)N [SACC-0029825] | 6.95 µM | < 0.0285 µM |  |  | 70% | *** (molecules which are either off-target or of low activity (<25 μM)) | 5.46 µM | 9.81 µM |  |  | 
Cc1nc(C)c(C(=O)N(Cc2ccco2)C2CCN(c3ccc4c(c3)OCO4)CC2)s1 [SACC-0040154] | 13.2 µM | 3.09 µM |  |  | 81% | *** (molecules which are either off-target or of low activity (<25 μM)) | 0.12 µM | 1.24 µM |  |  | 
CC1=CC(=NNC(=S)NCc2ccccc2)CC1 [SACC-0029249] |  |  | > 25 µM | 1.88 µM |  |  |  |  | > 25 µM | < 0.0285 µM | 
CN1c2ccccc2Oc2nnc(Cl)cc21 [SACC-0075838] | 4.37 µM | 0.0845 µM |  |  | 143% | *** (molecules which are either off-target or of low activity (<25 μM)) | > 25 µM | > 25 µM |  |  | 
CCOc1ccc(NC(=N)/N=c2/nc(C(F)(F)F)cc(C)[nH]2)cc1 [SACC-0060049] | 4.55 µM | > 25 µM |  |  | 104% | *** (molecules which are either off-target or of low activity (<25 μM)) | 1.93 µM | 0.243 µM |  |  | 
COC(=O)c1cc2c(s1)Oc1cc(C(F)(F)F)ccc1C(=S)N2 [SACC-0081272] | 1.48 µM | < 0.0285 µM |  |  |  | *** (molecules which are either off-target or of low activity (<25 μM)) | 0.0485 µM | > 25 µM |  |  | 74%
C=C(NNC(=S)Nc1c(C)cccc1C)c1cc2ccccc2o1 [SACC-0037245] | 5.78 µM | 4.43 µM |  |  |  | *** (molecules which are either off-target or of low activity (<25 μM)) | < 0.0285 µM | 0.605 µM |  |  | 63%
O=C(O)COc1ccccn1 [SACC-0126930] | < 0.0285 µM | > 25 µM |  |  | 133% | *** (molecules which are either off-target or of low activity (<25 μM)) | 0.761 µM | < 0.0285 µM |  |  | 
CCCc1cc(-c2cc(O)n3nc(C)c(CC)c3n2)no1 [SACC-0048722] | 4.17 µM | > 25 µM |  |  |  | *** (molecules which are either off-target or of low activity (<25 μM)) | < 0.0285 µM | 4.32 µM |  |  | 56%
CN1/C(=C/C=C/c2ccc3ccccc3[n+]2C)C=Cc2ccccc21 [SACC-0072383] |  |  | 0.326 µM | 0.501 µM |  |  |  |  | 0.294 µM | > 25 µM | 
NC(N)=N/C(N)=N\c1ccc(Br)cc1 [SACC-0108986] | 0.684 µM | 0.363 µM |  |  |  | *** (molecules which are either off-target or of low activity (<25 μM)) | 0.132 µM | 3.87 µM |  |  | 53%
CCc1cc2c(NCc3ccco3)nc(C)nc2s1 [SACC-0047526] |  |  | > 25 µM | > 25 µM |  |  |  |  | > 25 µM | > 25 µM | 
COc1ccccc1NC(=O)c1cn(CCC#N)nc1-c1ccc(C)c(C)c1 [SACC-0095111] | > 25 µM | 3.32 µM |  |  | 71% | *** (molecules which are either off-target or of low activity (<25 μM)) | > 25 µM | 7.33 µM |  |  | 
CCN(CC)c1ccc2cc(C(N)=O)c(=NNC(=O)c3cccs3)oc2c1 [SACC-0052578] | > 25 µM | > 25 µM |  |  | 166% | *** (molecules which are either off-target or of low activity (<25 μM)) | > 25 µM | > 25 µM |  |  | 
CCCC1=CC(=C2NNC(C)=C2c2ccc(C(=O)OCC)o2)C(O)=CC1=O [SACC-0048694] | 0.281 µM | > 25 µM |  |  |  | *** (molecules which are either off-target or of low activity (<25 μM)) | 6.87 µM | 17.5 µM |  |  | 65%
Cc1cc2ncn(CCCCSc3ccccc3)c2cc1C [SACC-0025692] | > 25 µM | 0.765 µM |  |  |  | *** (molecules which are either off-target or of low activity (<25 μM)) | 9.54 µM | 0.112 µM |  |  | 42%
O=[N+]([O-])c1ccc2nc(Nc3ccc(Br)cc3)c(Nc3ccc(Br)cc3)nc2c1 [SACC-0005102] |  |  | 1.08 µM | 0.0832 µM |  |  |  |  | 0.485 µM | 0.177 µM | 
O=C(Nc1ccc(I)cc1)C(Cl)(Cl)Cl [SACC-0062945] | < 0.0285 µM | 0.128 µM |  |  | 61% | *** (molecules which are either off-target or of low activity (<25 μM)) | 0.0604 µM | 3.84 µM |  |  | 
O=C(CSC1=NCCS1)c1ccc(Cl)cc1 [SACC-0064624] | 0.504 µM | 0.21 µM |  |  |  | *** (molecules which are either off-target or of low activity (<25 μM)) | > 25 µM | > 25 µM |  |  | 76%
S=C(NCc1ccccc1)NN=C1CCC(c2ccccc2)CC1 (stereo not shown) [SACC-0131532] |  |  | 16.6 µM | 1.41 µM |  |  |  |  | > 25 µM | > 25 µM | 
Cc1ccc(S(=O)(=O)Nc2nc(CN3CCCC3)nc3sc(C)c(C)c23)cc1 [SACC-0025777] |  |  | > 25 µM | 0.106 µM |  |  |  |  | 1.57 µM | > 25 µM | 
COc1ccc(C=Nn2c(C(F)(F)F)n[nH]c2=S)cc1 [SACC-0087120] |  |  | 1.11 µM | < 0.0285 µM |  |  |  |  | 3.16 µM | > 25 µM | 
